Like-named read-outs stand apart in the source and are kept apart here. Blank lines part the entries; values can stand above or below the compound they belong to.
Biological target: T1, Androgen Receptor (Homo sapiens, UniProt P10275)
T1 construct: endogenous in cells; host or cells: VCaP cells
T1 sequence (P10275 1-920): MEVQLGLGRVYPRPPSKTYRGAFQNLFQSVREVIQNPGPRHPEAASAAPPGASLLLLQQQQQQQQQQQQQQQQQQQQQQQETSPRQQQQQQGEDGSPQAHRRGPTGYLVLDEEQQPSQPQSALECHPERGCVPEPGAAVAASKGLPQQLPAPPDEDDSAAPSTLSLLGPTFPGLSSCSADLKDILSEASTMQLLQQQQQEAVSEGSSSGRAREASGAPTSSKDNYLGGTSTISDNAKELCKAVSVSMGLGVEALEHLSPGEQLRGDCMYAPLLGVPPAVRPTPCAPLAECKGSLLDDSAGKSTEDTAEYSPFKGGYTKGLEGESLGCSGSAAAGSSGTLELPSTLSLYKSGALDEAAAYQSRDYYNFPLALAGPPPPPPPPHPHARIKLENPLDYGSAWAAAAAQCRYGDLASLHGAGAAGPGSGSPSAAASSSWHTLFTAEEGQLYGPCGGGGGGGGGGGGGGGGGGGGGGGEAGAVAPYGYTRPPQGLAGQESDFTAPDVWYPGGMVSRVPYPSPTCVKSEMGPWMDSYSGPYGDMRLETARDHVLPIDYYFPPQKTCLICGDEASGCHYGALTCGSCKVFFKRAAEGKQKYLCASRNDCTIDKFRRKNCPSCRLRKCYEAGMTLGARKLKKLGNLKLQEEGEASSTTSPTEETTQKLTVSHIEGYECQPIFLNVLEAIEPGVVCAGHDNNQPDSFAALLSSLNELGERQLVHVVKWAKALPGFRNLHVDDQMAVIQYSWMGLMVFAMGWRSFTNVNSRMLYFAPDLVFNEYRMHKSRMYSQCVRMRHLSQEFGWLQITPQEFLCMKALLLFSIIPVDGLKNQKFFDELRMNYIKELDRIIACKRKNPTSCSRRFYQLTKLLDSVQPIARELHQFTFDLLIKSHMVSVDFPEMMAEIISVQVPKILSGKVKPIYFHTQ
Assay: Androgen Receptor ELISA assay (PathScan AR ELISA) in VCaP cells: AR degradation, Dmax and DC50
Type: cell-based
In short: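 After 24 h exposure of VCaP cells (charcoal-stripped serum, 0.1 nM R1881 agonist, 0.1% DMSO) to seven half-log compound concentrations, residual AR in lysates was measured by PathScan ELISA (TMB absorbance, 450 nm). Cells were plated at 30,000/well and grown at least 3 days beforehand.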

[1] = VCaP cells; Table 35; read-out: VCaP DC50
[2] = VCaP, VCaP cells; Table 35; read-out: VCaP Dmax (%)
[3] = VCaP cells; Table 36; read-out: VCaP DC50
[4] = VCaP, VCaP cells; Table 36; read-out: VCaP Dmax (%)
[5] = read-out: VCaP DC50; concentration that caused 50% Androgen Receptor degradation, VCaP cells (Table 32)
[6] = VCaP, read-out: VCaP Dmax (%), VCaP cells; Table 36

SMILES: Cc1ncsc1-c1ccc(CNC(=O)[C@@H]2C[C@@H](O)CN2C(=O)[C@@H](NC(=O)COCCCCOc2ccc(-c3ccc(N4C(=S)N(c5ccc(C#N)c(C(F)(F)F)c5)C(=O)C4(C)C)cc3)c(O)c2)C(C)(C)C)cc1 [Example 403]
Dmax (VCaP, read-out: VCaP Dmax (%)): 51 to 70%
DC50 (read-out: VCaP DC50; VCaP cells; Table 34): < 50 nM

SMILES: CC(C)(C)[C@H](NC(=O)COCCCCOc1ccc(-c2ccc(N3C(=S)N(c4cc(Cl)c(C#N)cc4F)C(=O)C3(C)C)cc2)cc1)C(=O)N1C[C@H](O)C[C@H]1C(=O)NCc1ccc(-c2cnco2)cc1 [Example 133, (2S,4R)-1-[(2S)-2-{2-[4-(4-{4-[3-(5-chloro-4-cyano-2-fluorophenyl)-5,5-dimethyl-4-oxo-2-sulfanylideneimidazolidin-1-yl]phenyl}phenoxy)butoxy]acetamido}-3,3-dimethylbutanoyl]-4-hydroxy-N-{[4-(1,3-oxazol-5-yl)phenyl]methyl}pyrrolidine-2-carboxamide]
Dmax (VCaP, read-out: VCaP Dmax (%)): < 25%

DC50 [1]: < 50 nM
Dmax [2]: 26 to 50%
SMILES: CNC(=O)[C@@H]1C[C@@H](O)CN1C(=O)[C@@H](NC(=O)COCCCCCOc1ccc(C(=O)N[C@H]2C(C)(C)[C@H](Oc3ccc(C#N)c(Cl)c3)C2(C)C)cc1)C(C)(C)C [Example 507]

DC50 (VCaP cells; Table 34; read-out: VCaP DC50): < 50 nM
Dmax (VCaP, VCaP cells; Table 34; read-out: VCaP Dmax (%)): > 71%
SMILES: Cc1ncsc1-c1ccc(CNC(=O)[C@@H]2C[C@@H](O)CN2C(=O)[C@@H](NC(=O)COCCCCOc2ccc(Oc3ccc(N4C(=S)N(c5cnc(C#N)c(C(F)(F)F)c5)C(=O)C4(C)C)cc3)cc2)C(C)(C)C)cc1 [Example 384]

DC50 [3]: < 50 nM
Dmax [4]: > 71%
SMILES: Cc1ncsc1-c1ccc([C@H](C)NC(=O)[C@@H]2C[C@@H](O)CN2C(=O)[C@@H](NC(=O)CCCCCCCc2ccc(C(=O)N[C@H]3C(C)(C)[C@H](Oc4ccc(C#N)c(Cl)c4)C3(C)C)cc2)C(C)(C)C)cc1 [Example 763, (2S,4R)-1-((S)-2-(8-(4-(((1r,3r)-3-(3-chloro-4-cyanophenoxy)-2,2,4,4-tetramethylcyclobutyl)carbamoyl)phenyl)octan-amido)-3,3-dimethylbutanoyl)-4-hydroxy-N-((S)-1-(4-(4-methylthiazol-5-yl)phenyl)ethyl)pyrrolidine-2-carboxamide]

SMILES: CC(C)(C)[C@H](NC(=O)COCCCCOc1ccc(-c2ccc(N3C(=S)N(c4ccc(C#N)c(Cl)c4)C(=O)C3(C)C)cc2F)cc1)C(=O)N1C[C@H](O)C[C@H]1C(=O)NCc1ccc(-c2cnco2)cc1 [Example 109, (2S,4R)-1-[(2S)-2-{2-[4-(4-{4-[3-(3-chloro-4-cyanophenyl)-5,5-dimethyl-4-oxo-2-sulfanylideneimidazolidin-1-yl]-2-fluorophenyl}phen-oxy)butoxy]acetamido}-3,3-dimethylbutanoyl]-4-hydroxy-N-{[4-(1,3-oxazol-5-yl)phenyl]methyl}pyrrolidine-2-carboxamide]
Dmax (VCaP, read-out: VCaP Dmax (%)): > 71%
DC50 [5]: < 50 nM

DC50 [3]: < 50 nM
Dmax [6]: 51 to 70%
SMILES: Cc1ncsc1-c1ccc([C@H](C)NC(=O)[C@@H]2C[C@@H](O)CN2C(=O)[C@@H](NC(=O)[C@H](C)OCCN2CCN(c3ccc(C(=O)N[C@H]4C(C)(C)[C@H](Oc5ccc(C#N)c(Cl)c5)C4(C)C)cc3)CC2)C(C)(C)C)cc1 [Example 664, (2S,4R)-1-((S)-2-((S)-2-(2-(4-(4-(((1r,3r)-3-(3-chloro-4-cyanophenoxy)-2,2,4,4-tetramethylcyclobutyl)carbamoyl)phenyl)piper-azin-1-yl)ethoxy)propanamido)-3,3-dimethylbutanoyl)-4-hydroxy-N-((S)-1-(4-(4-methylthiazol-5-yl)phenyl)ethyl)pyrrolidine-2-carboxamide]

DC50 [1]: < 50 nM
Dmax [2]: 51 to 70%
SMILES: Cc1ncsc1-c1ccc(CNC(=O)[C@@H]2C[C@@H](O)CN2C(=O)[C@@H](NC(=O)CNCCNc2ccc(-c3ccc(C(=O)N[C@H]4C(C)(C)[C@H](Oc5ccc(C#N)c(Cl)c5)C4(C)C)cc3)cn2)C(C)(C)C)cc1 [Example 484]

SMILES: Cc1ncsc1-c1ccc(CNC(=O)[C@@H]2C[C@@H](O)CN2C(=O)[C@@H](NC(=O)COCCC(O)COc2ccc(-c3ccc(N4C(=S)N(c5ccc(C#N)c(C(F)(F)F)c5)C(=O)C4(C)C)cc3)cc2)C(C)(C)C)cc1 (stereo partly drawn) [Example 129, (2S,4R)-1-[(2S)-2-(2-{4-[4-(4-{3-[4-cyano-3-(trifluoromethyl)phenyl]-5,5-dimethyl-4-oxo-2-sulfanylideneimidazolidin-1-yl}phenyl)phenoxy]-3-hydroxybutoxy}acetamido)-3,3-dimethylbutanoyl]-4-hydroxy-N-{[4-(4-methyl-1,3-thiazol-5-yl)phenyl]methyl}pyrrolidine-2-carboxamide]
Dmax (VCaP, read-out: VCaP Dmax (%)): 51 to 70%
DC50 [5]: < 50 nM

DC50 [3]: < 50 nM
Dmax [4]: > 71%
SMILES: COc1cc(-c2scnc2C)ccc1CNC(=O)C1C[C@@H](O)CN1C(=O)[C@@H](NC(=O)COCCN1CCN(c2ccc(C(=O)N[C@H]3C(C)(C)[C@H](Oc4ccc(C#N)c(Cl)c4)C3(C)C)cn2)CC1)C(C)(C)C (stereo partly drawn) [Example 793, N-((1r,3r)-3-(3-chloro-4-cyanophenoxy)-2,2,4,4-tetramethylcyclobutyl)-6-(4-(2-(2-(((S)-1-((2S,4R)-4-hydroxy-2-((2-methoxy-4-(4-methylthiazol-5-yl)benzyl)carbamoyl)pyrrolidin-1-yl)-3,3-dimethyl-1-oxobutan-2-yl)amino)-2-oxoethoxy)ethyl)piperazin-1-yl)nicotinamide]

DC50 [3]: < 50 nM
Dmax [6]: 51 to 70%
SMILES: Cc1ncsc1-c1ccc([C@H](C)NC(=O)[C@@H]2C[C@@H](O)CN2C(=O)[C@@H](NC(=O)CN2CCN(CCCN3CCN(c4ccc(C(=O)N[C@H]5C(C)(C)[C@H](Oc6ccc(C#N)c(C#N)c6)C5(C)C)cn4)CC3)CC2)C(C)(C)C)cc1 [Example 715, N-((1r,3r)-3-(3,4-dicyanophenoxy)-2,2,4,4-tetramethylcyclobutyl)-6-(4-(3-(4-(2-(((S)-1-((2S,4R)-4-hydroxy-2-(((S)-1-(4-(4-methylthiazol-5-yl)phenyl)ethyl)carbam-oyl)pyrrolidin-1-yl)-3,3-dimethyl-1-oxobutan-2-yl)amino)-2-oxoethyl)piperazin-1-yl)propyl)piperazin-1-yl)nicotinamide]

DC50 [3]: > 501 nM
Dmax [4]: 26 to 50%
SMILES: Cc1ncsc1-c1ccc([C@H](C)NC(=O)[C@@H]2C[C@@H](O)CN2C(=O)[C@@H](NC(=O)COCCN2CCN(Cc3cc(C(=O)N[C@@H](C)Cn4ccc(-c5ccc(C#N)c(Cl)c5)n4)n[nH]3)CC2)C(C)(C)C)cc1 [Example 790, N-((S)-1-(3-(3-chloro-4-cyanophenyl)-1H-pyrazol-1-yl)propan-2-yl)-5-((4-(2-(2-(((S)-1-((2S,4R)-4-hydroxy-2-(((S)-1-(4-(4-methylthiazol-5-yl)phenyl)ethyl)carbamoyl)pyrrolidin-1-yl)-3,3-dimethyl-1-oxobutan-2-yl)amino)-2-oxoethoxy)ethyl)piperazin-1-yl)methyl)-1H-pyrazole-3-carboxamide]

DC50 [3]: < 50 nM
Dmax [4]: > 71%
SMILES: Cc1ncsc1-c1ccc(C(CO)NC(=O)C2C[C@@H](O)CN2C(=O)[C@@H](NC(=O)COCCN2CCN(c3ccc(C(=O)N[C@H]4C(C)(C)[C@H](Oc5ccc(C#N)c(Cl)c5)C4(C)C)cn3)CC2)C(C)(C)C)cc1 (stereo partly drawn) [Example 671, N-((1r,3r)-3-(3-chloro-4-cyanophenoxy)-2,2,4,4-tetramethylcyclobutyl)-6-(4-(2-(2-(((S)-1-((2S,4R)-4-hydroxy-2-((2-hydroxy-1-(4-(4-methylthiazol-5-yl)phenyl)ethyl)carbam-oyl)pyrrolidin-1-yl)-3,3-dimethyl-1-oxobutan-2-yl)amino)-2-oxoethoxy)ethyl)pipera-zin-1-yl)nicotinamide]

SMILES: Cc1cc(N2C(=O)C(C)(C)N(c3ccc(-c4ccc(OCCCCOCC(=O)N[C@H](C(=O)N5C[C@H](O)C[C@H]5C(=O)NCc5ccc(-c6cnco6)cc5)C(C)(C)C)cc4)cc3)C2=S)ccc1C#N [Example 125, (2S,4R)-1-[(2S)-2-{2-[4-(4-{4-[3-(4-cyano-3-methylphenyl)-5,5-dimethyl-4-oxo-2-sulfanylideneimidazolidin-1-yl]phenyl}phenoxy)butoxy]acetamido}-3,3-dimethylbutanoyl]-4-hydroxy-N-{[4-(1,3-oxazol-5-yl)phenyl]methyl}pyrrolidine-2-carboxamide]
Dmax (VCaP, highest percentage of Androgen Receptor degradation observed, VCaP cells (Table 32); read-out: VCaP Dmax (%)): 51 to 70%
DC50 (concentration that caused 50% Androgen Receptor degradation, VCaP cells (Table 32); read-out: VCaP DC50): < 50 nM

From US11427548B2 (Arvinas Operations, Inc., priority 2015, dated 2022)
